The nature of this series: Surface activity test: critical micelle concentration (cmc), platinum plate method. In kind it is physicochemical. The conditions noted are these: 20° C. As to the method: The critical micelle concentration (cmc) of the target product was determined as 0.0068 mmol/L at 20° C., which was 3 times […] than that of the compound dodecyl glucose gemini surfactant (cmc=0.02 mmol/L) and is suitable for separation and extraction of detergents and biofilm proteins.

For `CCCCCCCCCCCCOCC(COCCOCC(COCCCCCCCCCCCC)O[C@@H]1OC(CO)[C@@H](O)C(O)C1O)O[C@@H]1OC(CO)[C@@H](O)C(O)C1O` (some centres unmarked) [dodecyl glucose gemini surfactant], the “critical micelle concentration (cmc)” value turned out to be 0.02 mmol/L.

For `CCCCCCCCCCCCCCOCC(COCCOCC(COCCCCCCCCCCCCCC)O[C@@H]1OC(CO)[C@@H](O)C(O)C1O)O[C@@H]1OC(CO)[C@@H](O)C(O)C1O` (some centres unmarked) [tetradecyl glucose gemini surfactant], the “critical micelle concentration (cmc)” value came to 0.053 mmol/L.

The record behind these values is US10093883B2, “Glucose gemini surfactant compound and method for preparation thereof” (ZHEJIANG UNIVERSITY, priority 2014, dated 2018).
